Assay results taken from ChEMBL document CHEMBL1201862, “PubChem BioAssay data set” (2004).
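Five concentrations, 48 hours, 96-well plates. GI50 is the concentration that inhibits growth by half.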 Active and inactive are the calls of the source. Cut-off read from the data, not from the text of the source: active = GI50 up to about 1.1 µM and inactive = higher.

Columns and labels:
Assay in all cases: inhibition of tumour cell growth, NCI panel, 48 h
SW-620 = tested on: SW-620
SN12C = tested on: SN12C
K562 = tested on: K562
SNB-75 = tested on: SNB-75
A549 = tested on: A549
HL-60 = tested on: HL-60
EKVX = tested on: EKVX
A498 = tested on: A498
HCT-15 = tested on: HCT-15
Hs-578T = tested on: Hs-578T
UO-31 = tested on: UO-31
MDA-MB-435 = tested on: MDA-MB-435
LOX IMVI = tested on: LOX IMVI
MDA-MB-231 = tested on: MDA-MB-231
OVCAR-5 = tested on: OVCAR-5
SK-MEL-5 = tested on: SK-MEL-5
HOP-92 = tested on: HOP-92
UACC-257 = tested on: UACC-257
SK-MEL-28 = tested on: SK-MEL-28
TK-10 = tested on: TK-10
RXF 393 = tested on: RXF 393
NCI-H522 = tested on: NCI-H522
HCT-116 = tested on: HCT-116
MCF7 = tested on: MCF7
HT-29 = tested on: HT-29
ACHN = tested on: ACHN
SF-295 = tested on: SF-295
NCI-H23 = tested on: NCI-H23
SF-268 = tested on: SF-268
NCI/ADR-RES = tested on: NCI/ADR-RES
U-251 = tested on: U-251
DU-145 = tested on: DU-145
OVCAR-8 = tested on: OVCAR-8
SR = tested on: SR
HCC 2998 = tested on: HCC 2998
MDA-N = tested on: MDA-N
CAKI-1 = tested on: CAKI-1
M14 = tested on: M14
SK-OV-3 = tested on: SK-OV-3
CCRF-CEM = tested on: CCRF-CEM
COLO 205 = tested on: COLO 205
NCI-H460 = tested on: NCI-H460
Malme-3M = tested on: Malme-3M
MOLT-4 = tested on: MOLT-4
KM12 = tested on: KM12
SF-539 = tested on: SF-539
OVCAR-4 = tested on: OVCAR-4
RPMI-8226 = tested on: RPMI-8226
NCI-H226 = tested on: NCI-H226
T47D = tested on: T47D
SNB-19 = tested on: SNB-19
786-0 = tested on: 786-0
IGROV-1 = tested on: IGROV-1
HOP-62 = tested on: HOP-62
UACC-62 = tested on: UACC-62
OVCAR-3 = tested on: OVCAR-3
SK-MEL-2 = tested on: SK-MEL-2
PC-3 = tested on: PC-3

For `NC1=C(N2CCOCC2)C(=O)NC2=N/C(=C\c3ccccc3)C(=O)N21`, which GI50 (SW-620) is on record?
The GI50 was > 100000 nM (inactive).

What about the GI50 (SN12C) of the same compound?
The GI50 was > 100000 nM (inactive).

And the GI50 (K562)?
Its GI50 is 26100 nM (inactive).

And the GI50 (SNB-75)?
Its GI50 is > 100000 nM (inactive).

What about the GI50 (A549) of the same compound?
The GI50 was > 100000 nM (inactive).

What about the GI50 (HL-60) of the same compound?
Its GI50 is 17900 nM (inactive).

What about the GI50 (EKVX) of the same compound?
The GI50 was > 100000 nM (inactive).

What about the GI50 (A498) of the same compound?
Its GI50 is 64300 nM (inactive).

And the GI50 (HCT-15)?
Its GI50 is 84300 nM.

What about the GI50 (Hs-578T) of the same compound?
Its GI50 is > 100000 nM (inactive).

And the GI50 (UO-31)?
The GI50 was > 100000 nM (inactive).

And the GI50 (MDA-MB-435)?
Its GI50 is > 100000 nM (inactive).

And the GI50 (LOX IMVI)?
The GI50 was > 100000 nM (inactive).

And the GI50 (MDA-MB-231)?
The GI50 was > 100000 nM (inactive).

What about the GI50 (OVCAR-5) of the same compound?
The GI50 was > 100000 nM (inactive).

What about the GI50 (SK-MEL-5) of the same compound?
The GI50 was > 100000 nM (inactive).

What about the GI50 (HOP-92) of the same compound?
The GI50 was > 100000 nM (inactive).

What about the GI50 (UACC-257) of the same compound?
Its GI50 is > 100000 nM (inactive).

And the GI50 (SK-MEL-28)?
Its GI50 is > 100000 nM (inactive).

And the GI50 (TK-10)?
The GI50 was > 100000 nM (inactive).

And the GI50 (RXF 393)?
Its GI50 is > 100000 nM (inactive).

What about the GI50 (NCI-H522) of the same compound?
Its GI50 is > 100000 nM (inactive).

What about the GI50 (HCT-116) of the same compound?
The GI50 was > 100000 nM (inactive).

And the GI50 (MCF7)?
Its GI50 is > 100000 nM (inactive).

And the GI50 (HT-29)?
The GI50 was > 100000 nM (inactive).

And the GI50 (ACHN)?
The GI50 was > 100000 nM (inactive).

And the GI50 (SF-295)?
Its GI50 is 3870 nM (inactive).

And the GI50 (NCI-H23)?
Its GI50 is > 100000 nM (inactive).

What about the GI50 (SF-268) of the same compound?
The GI50 was > 100000 nM (inactive).

And the GI50 (NCI/ADR-RES)?
The GI50 was > 100000 nM (inactive).

And the GI50 (U-251)?
Its GI50 is > 100000 nM (inactive).

What about the GI50 (DU-145) of the same compound?
The GI50 was > 100000 nM (inactive).

What about the GI50 (OVCAR-8) of the same compound?
Its GI50 is > 100000 nM (inactive).

And the GI50 (SR)?
Its GI50 is 49200 nM (inactive).

What about the GI50 (HCC 2998) of the same compound?
The GI50 was > 100000 nM (inactive).

And the GI50 (MDA-N)?
The GI50 was > 100000 nM (inactive).

And the GI50 (CAKI-1)?
The GI50 was > 100000 nM (inactive).

And the GI50 (M14)?
The GI50 was > 100000 nM (inactive).

What about the GI50 (SK-OV-3) of the same compound?
The GI50 was > 100000 nM (inactive).

And the GI50 (CCRF-CEM)?
The GI50 was 79600 nM (inactive).

And the GI50 (COLO 205)?
Its GI50 is > 100000 nM (inactive).

What about the GI50 (NCI-H460) of the same compound?
Its GI50 is > 100000 nM (inactive).

And the GI50 (Malme-3M)?
The GI50 was > 100000 nM (inactive).

And the GI50 (MOLT-4)?
Its GI50 is 35800 nM (inactive).

And the GI50 (KM12)?
Its GI50 is > 100000 nM (inactive).

What about the GI50 (SF-539) of the same compound?
Its GI50 is 76700 nM (inactive).

And the GI50 (OVCAR-4)?
The GI50 was > 100000 nM (inactive).

And the GI50 (RPMI-8226)?
Its GI50 is 47400 nM (inactive).

And the GI50 (NCI-H226)?
The GI50 was 97900 nM (inactive).

And the GI50 (T47D)?
The GI50 was 81300 nM (inactive).

And the GI50 (SNB-19)?
The GI50 was > 100000 nM (inactive).

What about the GI50 (786-0) of the same compound?
Its GI50 is > 100000 nM (inactive).

And the GI50 (IGROV-1)?
Its GI50 is > 100000 nM (inactive).

How did the GI50 (SW-620) turn out when `COc1cccc(-c2cc(O)c3cc(N4CCCC4)ccc3n2)c1` was run?
Its GI50 is < 1 nM (active).

And the GI50 (SN12C)?
The GI50 was < 1 nM (active).

What about the GI50 (K562) of the same compound?
The GI50 was < 1 nM (active).

And the GI50 (SNB-75)?
The GI50 was < 1 nM (active).

What about the GI50 (A549) of the same compound?
Its GI50 is < 1 nM (active).

And the GI50 (HL-60)?
Its GI50 is < 1 nM (active).

And the GI50 (EKVX)?
The GI50 was 166 nM (active).

What about the GI50 (HCT-15) of the same compound?
The GI50 was 1.69 nM.

What about the GI50 (Hs-578T) of the same compound?
Its GI50 is < 1 nM (active).

And the GI50 (UO-31)?
The GI50 was < 1 nM (active).

And the GI50 (MDA-MB-435)?
The GI50 was < 1 nM (active).

And the GI50 (LOX IMVI)?
The GI50 was < 1 nM (active).

What about the GI50 (MDA-MB-231) of the same compound?
Its GI50 is 1.55 nM (active).

And the GI50 (OVCAR-5)?
Its GI50 is 3.28 nM (active).

What about the GI50 (SK-MEL-5) of the same compound?
The GI50 was < 1 nM (active).

And the GI50 (HOP-92)?
The GI50 was 1.12 nM (active).

What about the GI50 (UACC-257) of the same compound?
Its GI50 is < 1 nM (active).

What about the GI50 (SK-MEL-28) of the same compound?
The GI50 was < 1 nM (active).

And the GI50 (TK-10)?
Its GI50 is 2600 nM (inactive).

And the GI50 (RXF 393)?
The GI50 was < 1 nM (active).

And the GI50 (NCI-H522)?
The GI50 was < 1 nM (active).

And the GI50 (HCT-116)?
Its GI50 is < 1 nM (active).

And the GI50 (MCF7)?
The GI50 was 39.4 nM (active).

What about the GI50 (HT-29) of the same compound?
The GI50 was < 1 nM (active).

And the GI50 (ACHN)?
Its GI50 is 1.13 nM (active).

What about the GI50 (SF-295) of the same compound?
The GI50 was < 1 nM (active).

And the GI50 (NCI-H23)?
Its GI50 is 2.79 nM (active).

And the GI50 (SF-268)?
Its GI50 is < 1 nM (active).

And the GI50 (NCI/ADR-RES)?
Its GI50 is < 1 nM (active).

And the GI50 (HOP-62)?
Its GI50 is < 1 nM (active).

What about the GI50 (U-251) of the same compound?
The GI50 was < 1 nM (active).

And the GI50 (DU-145)?
The GI50 was < 1 nM (active).

And the GI50 (OVCAR-8)?
The GI50 was < 1 nM (active).

And the GI50 (SR)?
The GI50 was < 1 nM (active).

And the GI50 (HCC 2998)?
Its GI50 is 2.06 nM (active).

What about the GI50 (UACC-62) of the same compound?
The GI50 was < 1 nM (active).

What about the GI50 (OVCAR-3) of the same compound?
The GI50 was < 1 nM (active).

What about the GI50 (MDA-N) of the same compound?
Its GI50 is < 1 nM (active).

And the GI50 (SK-MEL-2)?
The GI50 was < 1 nM (active).

And the GI50 (CAKI-1)?
Its GI50 is < 1 nM (active).

What about the GI50 (M14) of the same compound?
Its GI50 is < 1 nM (active).

What about the GI50 (SK-OV-3) of the same compound?
The GI50 was < 1 nM (active).

What about the GI50 (CCRF-CEM) of the same compound?
The GI50 was < 1 nM (active).

And the GI50 (COLO 205)?
The GI50 was < 1 nM (active).

What about the GI50 (NCI-H460) of the same compound?
Its GI50 is < 1 nM (active).

And the GI50 (Malme-3M)?
The GI50 was < 1 nM (active).

What about the GI50 (MOLT-4) of the same compound?
The GI50 was < 1 nM (active).

And the GI50 (KM12)?
Its GI50 is < 1 nM (active).

And the GI50 (SF-539)?
The GI50 was < 1 nM (active).

What about the GI50 (OVCAR-4) of the same compound?
Its GI50 is 2670 nM (inactive).

What about the GI50 (PC-3) of the same compound?
Its GI50 is < 1 nM (active).

And the GI50 (RPMI-8226)?
The GI50 was < 1 nM (active).

And the GI50 (NCI-H226)?
The GI50 was < 1 nM (active).

What about the GI50 (T47D) of the same compound?
The GI50 was > 10000 nM (inactive).

What about the GI50 (SNB-19) of the same compound?
Its GI50 is < 1 nM (active).

And the GI50 (786-0)?
The GI50 was < 1 nM (active).

And the GI50 (IGROV-1)?
The GI50 was 5 nM (active).
